Like-named read-outs stand apart in the source and are kept apart here.
T1: CYP6P4 (Anopheles arabiensis, UniProt A0A0M4KNY0)
T1 sequence (A0A0M4KNY0 1-506): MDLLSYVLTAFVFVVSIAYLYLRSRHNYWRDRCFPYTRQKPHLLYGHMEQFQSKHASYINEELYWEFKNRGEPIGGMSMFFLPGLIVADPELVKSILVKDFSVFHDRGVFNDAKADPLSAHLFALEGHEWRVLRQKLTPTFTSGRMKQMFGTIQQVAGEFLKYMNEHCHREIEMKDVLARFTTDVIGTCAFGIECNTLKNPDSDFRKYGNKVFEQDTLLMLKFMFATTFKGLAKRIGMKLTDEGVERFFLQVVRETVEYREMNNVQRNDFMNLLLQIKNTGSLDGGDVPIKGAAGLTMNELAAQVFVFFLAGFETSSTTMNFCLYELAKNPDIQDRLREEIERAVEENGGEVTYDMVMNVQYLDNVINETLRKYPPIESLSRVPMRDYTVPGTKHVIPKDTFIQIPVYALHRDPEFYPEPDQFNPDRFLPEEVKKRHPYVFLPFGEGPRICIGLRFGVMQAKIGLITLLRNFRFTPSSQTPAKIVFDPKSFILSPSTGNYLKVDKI
T1 sequence (Q86QH5 1-679 partner): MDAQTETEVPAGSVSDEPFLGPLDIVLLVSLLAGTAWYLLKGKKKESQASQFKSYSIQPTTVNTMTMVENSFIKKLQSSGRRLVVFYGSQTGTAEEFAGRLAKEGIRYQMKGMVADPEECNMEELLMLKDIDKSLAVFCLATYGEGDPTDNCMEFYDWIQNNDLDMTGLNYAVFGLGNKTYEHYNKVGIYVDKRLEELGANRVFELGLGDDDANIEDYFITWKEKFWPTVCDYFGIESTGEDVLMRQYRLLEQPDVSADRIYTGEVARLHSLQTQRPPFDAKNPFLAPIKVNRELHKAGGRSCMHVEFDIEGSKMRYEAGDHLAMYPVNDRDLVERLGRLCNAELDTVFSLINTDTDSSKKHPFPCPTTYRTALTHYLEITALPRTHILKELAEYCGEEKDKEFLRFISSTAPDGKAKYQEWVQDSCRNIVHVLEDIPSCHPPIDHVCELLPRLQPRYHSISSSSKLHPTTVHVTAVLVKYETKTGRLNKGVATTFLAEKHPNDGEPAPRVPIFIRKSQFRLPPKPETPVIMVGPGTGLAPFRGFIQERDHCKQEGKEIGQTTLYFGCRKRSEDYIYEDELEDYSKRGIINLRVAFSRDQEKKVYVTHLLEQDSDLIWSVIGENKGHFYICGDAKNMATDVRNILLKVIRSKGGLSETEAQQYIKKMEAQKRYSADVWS

B1: recombinant CYP6P4 (Anopheles arabiensis) (protein)
chain: T1 sequence (A0A0M4KNY0 1-506)

Experiments:
CYP6P4 [1] = biological target: T1, CYP6P4; assay: In vitro metabolism assays with insecticides (percentage depletion, HPLC); format: in vitro ADME; conditions: for metabolised at 1 h, 20 µM: Anopheles arabiensis, recombinant cyp6p4
Description: 0.2 M Tris–HCl and NADPH-regeneration components were added to the bottom of 1.5 ml tube chilled on ice. Membranes expressing recombinant CYP6P4 and AgCPR (and reconstituted with cytochrome b5) were added to the side of the tube and pre-incubated for 5 min at 30 °C, with shaking at 1200 rpm. […] Reactions were quenched with 0.1 ml ice-cold methanol and incubated for 5 more minutes to precipitate protein. Tubes were then centrifuged at 16,000 rpm and 4 °C for 15 min, and 150 μl of supernatant transferred into HPLC vials for analysis. All reactions were carried out in triplicate with experimental samples (+NADPH) and negative controls (-NADPH). […] For the other insecticides, mobile phases were 65:35 (bendiocarb) and 60:40 v/v (propoxur and malathion) acetonitrile to water, respectively with column temperature of 40 °C for bendiocarb and propoxur. Bendiocarb and propoxur were detected at 205 nm and 270 nm respectively, whilst malathion was detected at 230 nm. Enzyme activity was calculated as percentage depletion (the difference in the amount of insecticide(s) remaining in the +NADPH tubes compared with the –NADPH) and a t-test used for statistical analysis.

[2] = test system: An. arabiensis populations from Ndjamena; design: method as in Witzig et al., 2013; conditions: Chad, 2009, ref Witzig et al., 2013; cited from earlier work
CYP6P4 [3] = biological target: T1, CYP6P4; assay: Inhibition assay of CYP6P4 metabolism of diethoxyfluorescein by insecticides; format: biochemical; conditions: 0.11 μM DEF substrate, 2 pmol CYP6P4, inhibitor 25-0.011 μM, 30 °C
Description: To assess differences in the degree of binding of the recombinant CYP6P4 to insecticides from different classes, inhibition assay was conducted with DEF and nine insecticides (inhibitors). […] 25 μl of pre-warmed regeneration buffer (7.8 mg glucose-6-phosphate, 0.25 mM MgCl2, 1.7 mg NADP, 6 U/ml glucose-6-phosphate dehydrogenase and 2% w/v NaHCO3) was incorporated into the wells. Fluorescence was monitored for 21 cycles at interval of 1 min with shaking at every step, at 30 °C. Results were analysed with GraphPad Prism software and inhibition at each inhibitor concentration and incubation time calculated as residual control activity towards DEF.

CYP6P4 [4] = biological target: T1, CYP6P4; assay: Fluorogenic probes assay (O-dealkylation, DEF kinetics); format: biochemical; conditions: 0-2 μM diethoxyfluorescein, 2 pmol enzyme, 10 min
Description: To find out whether there are differences in the degree of binding of recombinant CYP6P4 to different insecticides, membrane was also tested for O-dealkylation towards seven (7) fluorogenic probes: resorufin-based 7-ethoxyresurofin (7-ER), resurofin methyl ether (RME), resorufin-benzylether (RBE) and resorufin-pentylether (RPE); coumarin-based probes: 7-ethoxy-4-trifluoromethylcoumarin (7-EFC) and 7-methoxy-4-trifluoromethylcoumarin (MFC); and diethoxyfluorescein (DEF). […] Membranes were activated for 5 min at 37 °C in fluorescence spectrophotometer FLOUstar Omega (BMG LABTECH, Ortenberg, Germany) before 25 μl NADPH regeneration buffer (1 mM glucose-6-phosphate (G6P), 0.25 mM MgCl2, 0.1 mM NADP and 1 U/ml glucose-6-phosphate dehydrogenase (G6PDH) prepared in KPi (pH 7.4) was added. All reactions were conducted in three replicates with negative control (–NADPH) devoid of the regeneration buffer. Rate of fluorescent product formation for 7-ER, RBE and RME (ʎexc = 544 nm, ʎemi = 590 nm), 7-EFC and MFC (ʎexc = 410 nm, ʎemi = 535 nm) and DEF (ʎexc = 485 nm, ʎemi = 530 nm) was determined by linear regression of measurement between 2 and 10 min after start of the reaction.
For kinetics, 0–2 μM diethoxyfluorescein was assayed with 2 pmol of recombinant enzyme in a total volume of 250 μl. The protocol was as outlined above, with varying substrate concentration. […]

[5] = substrate: CC1(C)C(C=C(Cl)Cl)C1C(=O)OCc1cccc(Oc2ccccc2)c1; assay: purified protein, by the assay type; format: biochemical, Anopheles arabiensis; conditions: other: permethrin 3-30 μM, 30 min, 22.5 pmol recombinant protein
Description: Reactions were performed in triplicates both for + NADPH (experimental tubes) and –NADPH (negative control tubes). Km and Vmax were established from the plot of substrate concentrations against the initial velocities and fitting of the data to the Michaelis–Menten module using the least squares non-linear regression, as implemented in the GraphPad Prism 6.03 Software (GraphPad Inc., La Jolla, CA, USA).

[6] = 20 μM insecticide, 1 h incubation, 30 °C, +NADPH vs -NADPH

Molecule | resistance/susceptibility status [2] | Percentage depletion (CYP6P4 [1]; [6]) | metabolised at 1 h, 20 µM (CYP6P4 [1]; [6]) [%] | also measured
Clc1ccc(C(c2ccc(Cl)cc2)C(Cl)(Cl)Cl)cc1 [DDT] | resistant | – | – | Percentage depletion (CYP6P4 [1]; 20 μM DDT, 1 h, following addition of sodium cholate, p = 0.08, neither dicofol nor DDE detected): up to 20%
CNC(=O)Oc1cccc2c1OC(C)(C)O2 [bendiocarb] | susceptible | No activities | – | IC50 (CYP6P4 [3]): high IC50 values
CCOc1ccc2c(c1)Oc1cc(OCC)ccc1C21OC(=O)c2ccccc21 [DEF, diethoxyfluorescein] | – | – | – | Kcat (maximal catalytic activity) (CYP6P4 [4]): 58.65 min⁻¹; Km (CYP6P4 [4]): 110 nM
ClC1=C(Cl)[C@]2(Cl)[C@@H]3[C@@H]4C[C@@H]([C@H]5O[C@@H]45)[C@@H]3[C@@]1(Cl)C2(Cl)Cl [dieldrin] | susceptible | – | – | –
CNC(=O)Oc1ccccc1OC(C)C [propoxur] | – | No activities | – | –
CC1(C)[C@H](C(=O)O[C@H](C#N)c2cccc(Oc3ccccc3)c2)[C@@H]1/C=C(\Cl)C(F)(F)F (racemic) [λ-cyhalothrin] | – | – | 57.8 | –
Cc1c(COC(=O)[C@@H]2[C@H](/C=C(\Cl)C(F)(F)F)C2(C)C)cccc1-c1ccccc1 (racemic) [bifenthrin] | – | 49.2% | – | –
CC1(C)[C@H](C(=O)O[C@H](C#N)c2cccc(Oc3ccccc3)c2)[C@@H]1C=C(Br)Br [deltamethrin] | – | – | < 2 | IC50 (CYP6P4 [3]; read-out: IC50): 2520 nM; mortality rate [2]: 90%
CCOc1ccc(C(C)(C)COCc2cccc(Oc3ccccc3)c2)cc1 [etofenprox] | – | – | 24.9 | –
CC1(C)C(C=C(Cl)Cl)C1C(=O)OCc1cccc(Oc2ccccc2)c1 (centres unmarked) [permethrin] | – | – | 70.5 | IC50 (CYP6P4 [3]; read-out: IC50): 970 nM
CCOC(=O)CC(SP(=S)(OC)OC)C(=O)OCC (centres unmarked) [malathion] | susceptible | No activities | – | IC50 (CYP6P4 [3]): high IC50 values
B1 | – | – | – | Km [5]: 8.07 µM; kcat [5]: 3.24 min⁻¹; kcat/Km [5]: 0.4008 min^−1μM^−1

— publication PMC4717123, “The cytochrome P450 CYP6P4 is responsible for the high pyrethroid resistance in knockdown resistance-free Anopheles arabiensis” (Insect Biochemistry and Molecular Biology, 2016)
